# In patent publication CN113979875A, “一种地佐辛衍生物晶型a及其制备方法和应用” (Yangtze River Pharmaceutical Group Co Ltd, priority 2020, dated 2022):
# Key:
# [1] = Stress (influencing factor) stability test, crystal form by XRPD (Example 9); assay type: physicochemical
# [2] = Intermediate and long-term storage stability (Example 10); assay type: physicochemical; settings: 12 months
# [3] = Grinding test, crystal form by XRPD (Example 7); assay type: physicochemical; settings: agate mortar, thorough grinding for half an hour
# [4] = biological target: δ opioid receptor (δ阿片类受体) (Homo sapiens, UniProt P41143); assay: Radioligand competitive binding, δ opioid receptor (Example 12)
# [5] = biological target: μ opioid receptor (μ阿片类受体) (Homo sapiens, UniProt P35372); assay: Radioligand competitive binding, μ opioid receptor (Example 12)
# [6] = biological target: κ opioid receptor (κ阿片类受体) (Homo sapiens, UniProt P41145); assay: Radioligand competitive binding, κ opioid receptor (Example 12)
# [7] = intermediate condition 30℃±2℃/65%±5%RH
# [8] = long-term condition 25℃±2℃/60%±5%RH
SMILES,crystal form ([1]; day 0 (initial)),"crystal form ([1]; high humidity, 5 days)","crystal form ([1]; high humidity, 10 days)","crystal form ([1]; high humidity, 30 days)","crystal form ([1]; high temperature and high humidity, 5 days)","crystal form ([1]; high temperature and high humidity, 10 days)","crystal form ([1]; high temperature and high humidity, 30 days)","crystal transformation (XRPD compared with initial data) ([1]; high temperature and high humidity, high humidity, and light (Figs. 9-17))","crystal form ([1]; light, 5 days)","crystal form ([1]; light, 10 days)","crystal form ([1]; light, 30 days)","change in all quality indices ([1]; light, high temperature and high humidity, high humidity, packed in medicinal LDPE bag and polyester/aluminium/polyethylene composite film)","chemical stability [2, 7]","crystal form stability [2, 7]","chemical stability [2, 8]","crystal form stability [2, 8]",crystal transformation on grinding [3],IC50 [4],IC50 [5],IC50 [6]
C[C@@]12CCCCC[C@@H](Cc3ccc(O)cc31)[C@@H]2NCc1ccccc1.Cl [地佐辛衍生物晶型A],晶型A,晶型A,晶型A,晶型A,晶型A,晶型A,晶型A,没有发生转晶现象,晶型A,晶型A,晶型A,"各项指标无明显变化,均符合质量标准要求",很好的化学稳定性,很好的化学稳定性和晶型稳定性,很好的化学稳定性,很好的化学稳定性和晶型稳定性,未转晶,–,–,–
"C[C@@]12CCCCC[C@@H](Cc3ccc(O)cc31)[C@@H]2NCc1ccccc1.Cl [地佐辛衍生物晶型A, 盐酸盐]",–,–,–,–,–,–,–,–,–,–,–,–,–,–,–,–,–,< 10 nM,< 10 nM,< 10 nM
